# Reference: patent publication US20060009618A1, “Expression receptors with 7 transmembrane domains in baculovirus-insect cell system” (priority 2002, published 2006)
# Experiments:
# non-infected Sf9 cells = experiment: Calcium imaging (fura-2) in non-infected Sf9 cells; type: cell-based, Spodoptera frugiperda; settings: ionophore at 5 μM, FIG. 2 top graph
# Procedure: In a first series of experiments, the possibility of measuring the calcium response in Sf9 cells using the calcium imaging technique was tested.
# The protocol used for the assays is as follows:
# (§1) Sf9 cells are cultured on 24-well plates containing 12 mm coverslips. Before the experiments, the culture medium is removed and washed with a buffer containing 10 mM of NaCl, 60 mM of KCl, 25 mM of MgCl2, 1.8 mM of CaCl2, 4 mM of D-glucose, 110 mM of sucrose and 10 mM of 2-(N-morpholino)ethanesulfonic acid; the pH is adjusted to 6.2 at ambient temperature with Trizma base.
# The cells are incubated for 1 hour at ambient temperature in the dark with a solution of MBS containing fura 2-AM (4 μm) (molecular probe). […]
# (§2) The fura-2 fluorescence measurements are carried out using a T.I.L.L Photonics GmbH, (Planegg) Polychrome II multipath wavelength illumination system for extinction. […] The acquisition and the calculation of the fluorescence images are carried out using the T.I.L.L-Vision program. […] The fluorescence ratios (f340/f380) are calculated for the intracellular Ca^2+ variations. […]
# The Ca^2+ signals are the result of the mean determined on all the cells in the field of the camera (gray signal) and of the mean for the responding cells (black signal) (n=4).
# [1] = tested on: octopamine receptor naturally present in Sf9 cells; experiment: Octopamine control, calcium imaging (fura-2) in Sf9 cells; type: cell-based, Spodoptera frugiperda; settings: 50 μM
# Procedure: as §1
# The cells are incubated for 1 hour at ambient temperature in the dark with a solution of MBS containing fura 2-AM (4 μm) (molecular probe). The cells are then washed with an excess of MBS without fura 2-AM and mounted in a Coverwell chamber (Polylabo, France) (diameter: 9 mm; thickness: 2.5 mm; cross section: 22.5).
# The chamber is placed under the microscope and the cells are perfused under gravity with 0.85 ml/min (3.78 cm/min) at ambient temperature (23° C.).
# as §2, with “extinction. The microscope (Olympus) is equipped with a long-distance objective (×20). The spatio-temporal Ca^2+ distributions are studied using a PCO interline camera.” for “extinction.”
# [2] = molecular target: T1, HA-Gα16 (Gα16 protein with N-terminal HA epitope), expressed in Sf9 cells (human, UniProt P30679 1-374); experiment: colocalization by immunofluorescence, confocal microscopy, Sf9 cells infected with double-recombinant baculovirus
# T1 construct: whole, on cells; Intracellular protein with a submembrane cytoplasmic location in infected Sf9 cells; also called Ga16; G16
# T1 sequence (looked up): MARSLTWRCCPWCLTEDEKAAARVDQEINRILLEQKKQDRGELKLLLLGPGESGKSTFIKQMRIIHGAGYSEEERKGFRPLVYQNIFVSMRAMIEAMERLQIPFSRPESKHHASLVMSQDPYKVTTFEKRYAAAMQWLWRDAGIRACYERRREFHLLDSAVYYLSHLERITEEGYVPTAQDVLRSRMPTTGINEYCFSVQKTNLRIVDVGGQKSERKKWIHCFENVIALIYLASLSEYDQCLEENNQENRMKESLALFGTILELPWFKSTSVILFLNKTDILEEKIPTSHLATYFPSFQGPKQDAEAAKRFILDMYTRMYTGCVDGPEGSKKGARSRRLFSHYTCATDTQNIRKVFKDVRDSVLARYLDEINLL
# Procedure: The cellular location of the ORs and of the G proteins were studied by immunofluorescence 36 hours after infection. The ORs are detected by means of an anti-FLAG primary antibody and an FITC-labeled secondary antibody. The G proteins are detected by means of a rhodamine-labeled anti-HA antibody.
# The labeled cells are observed by confocal microscopy. In the cells infected with the AcMNPV209 and AcMNPV210 baculoviruses, labeling is observed to be located at the cell surface, with a punctate distribution typical of membrane receptors. In the cells infected with the AcSLP10G₁₆ and AcSLP10Golf baculoviruses, labeling is observed to have a submembrane cytoplasmic location. In the cells infected with the double-recombinant baculoviruses AcG₁₆-209, AcGolf-210, AcG₁₆-209 and AcGolf-210, colocalization of the receptor with each G protein co-expressed is observed. No major difference is observed between OR17-209 and OR17-210 as regards preferential binding with Golf or G₁₆. It therefore appears that these two receptors are capable of coupling to the two G proteins in insect cells.
molecule,measurement,setting,value
"CNc1c(Br)cc2oc(C[C@H]3O[C@@]4(CC[C@H]3C)O[C@H]([C@H](C)C(=O)c3ccc[nH]3)[C@H](C)C[C@H]4C)nc2c1C(=O)O [4-bromo A23187, 4-bromo-A23187]",intracellular Ca2+ variation (fluorescence ratio f340/f380),non-infected Sf9 cells,induces a large increase in intracellular calcium
NCC(O)c1ccc(O)cc1 (stereo not shown) [octopamine],intracellular calcium,"[1]; all baculovirus-infected Sf9 cells (OR17-209 or OR17-210 alone, with G16 or with Golf), 36 hours after infection, FIG. 3",induces an increase in intracellular calcium
same,intracellular Ca2+ variation (fluorescence ratio f340/f380),"[1]; non-infected Sf9 cells, FIG. 2 bottom graph, B",induces an increase in intracellular calcium
"human olfactory receptor OR17-209 with N-terminal FLAG epitope, expressed in Sf9 cells from baculovirus AcMNPV209 (receptor, UniProt P47890 1-313, looked up, not shown: small tags and cut ends, whole, on cells; The construct encodes EGT signal peptide, FLAG and receptor; also called OR-209) MEGKNLTSISECFLLGFSEQLEEQKPLFGSFLFMYLVTVAGNLLIILVIITDTQLHTPMYFFLANLSLADACFVSTTVPKMLANIQIQSQAISYSGCLLQLYFFMLFVMLEAFLLAVMAYDCYVAICHPLHYILIMSPGLCIFLVSASWIMNALHSLLHTLLMNSLSFCANHEIPHFFCDINPLLSLSCTDPFTNELVIFITGGLTGLICVLCLIISYTNVFSTILKIPSAQGKRKAFSTCSSHLSVVSLFFGTSFCVDFSSPSTHSAQKDTVASVMYTVVTPMLNPFIYSLRNQEIKSSLRKLIWVRKIHSP",binding result,[2],binds
